Entries after “also recorded” stand apart in the source; their conditions may differ.
Columns and labels:
3T3-L1 adipocytes [1] = test: adipocyte death / toxicity to adipocytes; conditions: 30 μg/ml, matured 3T3-L1 adipocytes, 24 hours
3T3-L1 adipocytes [2] = test: glucose consumption (remaining glucose) in culture medium of 3T3-L1 adipocytes; format: cell-based; conditions: for remaining glucose concentration in culture medium after 24 hours: culture medium of 3T3-L1 adipocytes after 24 hours, means ± SD, N = 3; for glucose absorption activity of adipocytes 3T3-L1 (anti-hyperglycemic ability): FIG. 1, medium glucose 300 mg/dl, remaining glucose after 24 hours
Protocol: After precursor adipocytes 3T3-L1 were induced as the matured adipocytes, culture medium with glucose (concentration of 300 mg/dl) and drugs were added, and the concentration of the remaining glucose in the culture medium were measured after 24 hours.
Adipose tissues are major sites for postprandial glucose uptake. Therefore, in vitro anti-diabetic screening model based on measuring glucose consumption after 24 hours in culture medium of 3T3-L1 adipocytes was developed. […] Accordingly, 60 chalcone derivatives with and without substitutions on A-ring were examined in our developed model. […] Structure-activity relationship (SAR) analyses data are also determined.

3T3-L1 adipocytes [3] = test: lipid droplet formation in 3T3-L1 adipocytes (Oil-Red O staining); format: cell-based; conditions: insulin 3.2×10^−7 M, RSZ, PIO, chalcone derivatives 30 μg/ml, DMEM 25 mM D-glucose, 4 days
Protocol: After two days of differentiation, 3T3-L1 cells were treated without (control) or with insulin (3.2×10^−7 M), RSZ (30 μg/ml), PIO (30 μg/ml), and chalcone derivatives (30 μg/ml) in DMEM containing 25 mM D-glucose. After 4 days, lipid droplets were observed by Oil-Red O staining (data not shown).

C57BL/6 mice [4] = test: oral glucose tolerance test (OGTT) in HF diet mice; format: in vivo; conditions: 7 weeks
Protocol: (§1) The numbers of mice in Experiment 4 were the same as in Experiment 3, and mice were divided as four groups, “control”, “HF diet”, “HF diet+pioglitazone” and “HF diet+compound 12” groups.
(§2) The method and conditions for performing Experiment 7 were similar to those in Experiments 3 and 4, wherein C57BL/6 mice were grouped as five groups, (a) “Control” group (n=6), (b) “HF diet” group (n=7); (c) “HF diet+pioglitazone” group (oral dosage: 6.75 mg/kg/day pioglitazone, n=8); (d) “HF diet+compound 26×1” group: the mice were fed with high-fat-percentage feed (at least 40% fat) for a long-term period for inducing obesity and metabolic syndromes and simultaneously administered with compound 26 (oral dosage: 6.75 mg/kg/day, n=11); and (e) “HF diet+compound 26×5” group (oral dosage: 33.75 mg/kg/day compound 26, n=12).

C57BL/6 mice [5] = test: body weight gain of high-fat diet induced obesity mice; format: in vivo; conditions: HF diet C57BL/6 mice
Source text: (§3) Please refer to FIG. 2, C57BL/6 mice were grouped as four groups. (a) “Control” group (normal healthy animal group): the mice were fed with normal feed. (b) “High-fat (HF) diet” group (unhealthy negative control group): the mice were fed with high-fat-percentage feed (at least 40% fat) for a long-term period for inducing obesity and metabolic syndromes. (c) “HF diet+pioglitazone” group (clinical administration control group): the mice were fed with high-fat-percentage feed (at least 40% fat) for a long-term period for inducing obesity and metabolic syndromes and simultaneously administered with the clinically anti-diabetes TZD, pioglitazone (oral dosage: 6.75 mg/kg/day). […] The number of mice in the groups (a) to (d) were 5, 5, 6 and 13 respectively.
as §2

C57BL/6 mice [6] = test: fasting blood glucose level of HF diet mice; format: in vivo; conditions: oral 6.75 mg/kg/day, 7 weeks, FIG. 3(a)
Source text: as §3, §1

| Molecule | adipocyte death / toxicity to adipocytes (3T3-L1 adipocytes [1]) | remaining glucose concentration in culture medium after 24 hours (3T3-L1 adipocytes [2]; 30 μg/ml, control 310 ± 4.0) [mg/dL] | glucose absorption activity of adipocytes 3T3-L1 (anti-hyperglycemic ability) (3T3-L1 adipocytes [2]; 30 μg/ml) | other results |
| --- | --- | --- | --- | --- |
| COc1ccc(/C=C/C(=O)c2ccccc2O)cc1 [Compound 1, (E)-1-(2-hydroxyphenyl)-3-(4-methoxyphenyl)prop-2-en-1-one] | non-toxic | 283 ± 21.4 |  |  |
| O=C(/C=C/c1ccccc1)c1ccc(O)cc1O [Compound 2, (E)-1-(2,4-dihydroxyphenyl)-3-phenylprop-2-en-1-one] | lead to adipocyte death; also recorded: toxic | 273 ± 2.9 | not significantly better than that in compound 9 |  |
| O=C(/C=C/c1ccc(OCc2ccccc2)cc1)c1ccc(O)cc1O [Compound 3, (E)-3-(4-(benzyloxy)phenyl)-1-(2,4-dihydroxyphenyl)prop-2-en-1-one] | lead to adipocyte death; also recorded: toxic | 249 ± 12.2 | not significantly better than that in compound 9 |  |
| COc1cccc(/C=C/C(=O)c2ccccc2O)c1 [Compound 4, (E)-1-(2-hydroxyphenyl)-3-(3-methoxyphenyl)prop-2-en-1-one] | non-toxic | 264 ± 7.8 |  |  |
| COc1ccc(/C=C/C(=O)c2ccc(O)cc2O)cc1 [Compound 5, (E)-1-(2,4-dihydroxyphenyl)-3-(4-methoxyphenyl)-prop-2-en-1-one] | lead to adipocyte death; also recorded: toxic | 248 ± 0.4 | not significantly better than that in compound 9 |  |
| COc1cccc(/C=C/C(=O)c2ccc(O)cc2O)c1 [Compound 6, (E)-1-(2,4-dihydroxyphenyl)-3-(3-methoxyphenyl)-prop-2-en-1-one] | lead to adipocyte death; also recorded: toxic | 274 ± 12.1 | not significantly better than that in compound 9 |  |
| O=C(/C=C/c1ccccc1)c1ccccc1 [Compound 9, (E)-chalcone] | non-toxic | 253 ± 9.9 | relatively similar |  |
| COc1ccc(/C=C/C(=O)c2ccccc2Br)cc1 [Compound 12, (E)-1-(2-bromophenyl)-3-(4-methoxyphenyl)prop-2-en-1-one] | didn't result in adipocyte death |  | best anti-hyperglycemic ability; also recorded: best activity | formation of lipid droplets (3T3-L1 adipocytes [3]): significantly prevent the formation of lipid droplets; glucose intolerance (OGTT) (C57BL/6 mice [4]; HF diet mice, oral 6.75 mg/kg/day, FIG. 3(b), 6.75 mg/kg/day): significantly inhibit the occurrence of glucose intolerance; also recorded: inhibition of glucose intolerance; body weight gain (C57BL/6 mice [5]; oral dosage 6.75 mg/kg/day, FIG. 2): significantly inhibit the body weight gain; also recorded: inhibited; fasting blood glucose level (C57BL/6 mice [6]): significantly inhibit the increase of blood glucose level; also recorded: inhibition of the blood glucose level |
| COc1ccc(/C=C/C(=O)c2ccccc2I)cc1 [Compound 26, (E)-1-(2-iodophenyl)-3-(4-methoxyphenyl)prop-2-en-1-one] | didn't result in adipocyte death |  | best anti-hyperglycemic ability | formation of lipid droplets (3T3-L1 adipocytes [3]): significantly prevent the formation of lipid droplets; glucose intolerance / insulin resistance (C57BL/6 mice [4]; HF diet C57BL/6 mice, oral dosage 6.75 or 33.75 mg/kg/day, FIG. 6): significantly prevents obesity and insulin resistance; also recorded: inhibition of glucose intolerance; body weight / obesity (C57BL/6 mice [5]; oral dosage 6.75 or 33.75 mg/kg/day, FIG. 5): significantly prevents obesity; also recorded: inhibited |
| O=C(/C=C/c1ccccc1)c1ccc(I)cc1 [Compound 58, (E)-1-(4-iodophenyl)-3-phenylprop-2-en-1-one] |  | 292 ± 5.3 |  |  |
| COc1ccc(/C=C/C(=O)c2ccc(I)cc2)cc1 [Compound 59, (E)-1-(4-iodophenyl)-3-(4-methoxyphenyl)prop-2-en-1-one] |  | 299 ± 3.8 |  |  |
| COc1cccc(/C=C/C(=O)c2ccc(I)cc2)c1 [Compound 60, (E)-1-(4-iodophenyl)-3-(3-methoxyphenyl)prop-2-en-1-one] |  | 274 ± 22.5 |  |  |
| CCc1ccc(CCOc2ccc(CC3SC(=O)NC3=O)cc2)nc1 (stereo not shown) [Pioglitazone, pioglitazone, reference compound] |  | 230 ± 13.5 |  | remaining glucose concentration in culture medium after 24 hours (3T3-L1 adipocytes [2]; 30 μg/ml, control 310 ± 4.0, listed as pioglitazone): 230 mg/dL |
| CN(CCOc1ccc(CC2SC(=O)NC2=O)cc1)c1ccccn1 (stereo not shown) [Rosiglitazone, rosiglitazone, reference compound] |  | 263 ± 23.9 |  | remaining glucose concentration in culture medium after 24 hours (3T3-L1 adipocytes [2]; 30 μg/ml, control 310 ± 4.0, listed as rosiglitazone): 263 mg/dL |
| Insulin: insulin, positive control in the adipocyte tests |  |  |  | formation of lipid droplets (3T3-L1 adipocytes [3]): increase the lipid droplets in adipocytes; glucose consumption (3T3-L1 adipocytes [2]; Experiment 6, insulin 3.2×10^−7 M, RSZ, PIO 30 μg/ml, DMEM 25 mM D-glucose): promote glucose consumption; remaining glucose concentration in culture medium after 24 hours (3T3-L1 adipocytes [2]; insulin 3.2 × 10^−17M): 294 ± 6.3 mg/dL |
